Assay results taken from patent publication US20230172204A1 (BASF SE, priority 2020, published 2023).

Key:
[1] = system: Phakopsora pachyrhizi (F129L); test: Protective control of soybean rust on soybeans (PHAKPA P2); format: in vivo; conditions: for PHAKPA (F129L) Disease level (%) P2 at 16 ppm / PHAKPA (F129L) Disease level (%) P2 at 4 ppm: P2 protective, % diseased leaf area; for % PHAKPA (F129L) Disease level P2 at 4 ppm: protective P2, 4 ppm; for % PHAKPA (F129L) Disease level P2 at 4 ppm / % PHAKPA (F129L) Disease level P2 at 16 ppm: soybean rust F129L; for % PHAKPA (F129L) Disease level P2 at 16 ppm: protective P2, 16 ppm
[2] = system: Phakopsora pachyrhizi (F129L); test: Protective control of soybean rust on soybeans (PHAKPA P6); format: in vivo; conditions: for PHAKPA (F129L) Disease level (%) P6 at 16 ppm / PHAKPA (F129L) Disease level (%) P6 at 4 ppm: P6 protective, % diseased leaf area; for % PHAKPA (F129L) Disease level P6 at 4 ppm: protective P6, 4 ppm; for % PHAKPA (F129L) Disease level P6 at 4 ppm / % PHAKPA (F129L) Disease level P6 at 16 ppm: soybean rust F129L; for % PHAKPA (F129L) Disease level P6 at 16 ppm: protective P6, 16 ppm

Row | Structure (SMILES) | PHAKPA (F129L) Disease level (%) P2 at 16 ppm [1] [%] | % PHAKPA (F129L) Disease level P2 at 4 ppm [1] [%] | % PHAKPA (F129L) Disease level P2 at 16 ppm [1] [%] | PHAKPA (F129L) Disease level (%) P6 at 16 ppm [2] [%] | % PHAKPA (F129L) Disease level P6 at 4 ppm [2] [%] | % PHAKPA (F129L) Disease level P6 at 16 ppm [2] [%] | PHAKPA (F129L) Disease level (%) P2 at 4 ppm [1] [%] | PHAKPA (F129L) Disease level (%) P6 at 4 ppm [2] [%]
1 | CO/N=C(/C(=O)OC)c1cccc(C)c1CO/N=C(\C)c1ccccc1F [Ex. 1, Methyl (2E)-2-[2-[[(E)-3-(2-fluorophenyl)ethylideneamino]oxymethyl]-3-methyl-phenyl]-2-methoxyimino-acetate] | 28 | 80 | 27 | 47 | 90 | 56 | – | –
2 | CNC(=O)/C(=N/OC)c1cccc(C)c1CO/N=C(\C)c1ccccc1F [Ex. 2, (2E)-2-[2-[[(E)-1-(2-fluorophenyl)ethylideneamino]oxymethyl]-3-methyl-phenyl]-2-methoxyimino-N-methyl-acetamide] | – | 5 | 0 | – | 26 | 1 | – | –
3 | CO/N=C(/C(=O)OC)c1cccc(C)c1CO/N=C(\C)c1cc(Cl)cc(Cl)c1 [Ex. 3, Methyl (2E)-2-[2-[[(E)-1-(3,5-dichlorophenyl)ethylideneamino]oxymethyl]-3-methyl-phenyl]-2-methoxyimino-acetate] | 2 | 30 | 3 | 1 | 40 | 6 | – | –
4 | CNC(=O)/C(=N/OC)c1cccc(C)c1CO/N=C(\C)c1cc(Cl)cc(Cl)c1 [Ex. 4, (2E)-2-[2-[[(E)-1-(3,5-dichlorophenyl)ethylideneamino]oxymethyl]-3-methyl-phenyl]-2-methoxyimino-N-methyl-acetamide] | – | 2 | 0 | – | 13 | 1 | 2 | 17
5 | CO/N=C(/C(=O)OC)c1cccc(C)c1CO/N=C(\C)c1ccc(C)cc1 [Ex. 5, Methyl (2E)-2-methoxyimino-2-[3-methyl-2-[[(E)-1-(p-tolyl)ethylideneamino]oxymethyl]phenyl]acetate] | 1 | 28 | 1 | 4 | 50 | 4 | – | –
6 | CNC(=O)/C(=N/OC)c1cccc(C)c1CO/N=C(\C)c1ccc(C)cc1 [Ex. 6, (2E)-2-Methoxyimino-N-methyl-2-[3-methyl-2-[[(E)-1-(p-tolyl)ethylideneamino]oxymethyl]phenyl]acetamide] | – | 1 | 0 | – | 19 | 1 | 0 | 23
7 | CO/N=C(/C(=O)OC)c1cccc(C2CC2)c1CO/N=C(\C)c1cccc(C(F)(F)F)c1 [Ex. 10] | – | 22 | 2 | – | 45 | 3 | – | –
8 | CNC(=O)/C(=N/OC)c1cccc(C2CC2)c1CO/N=C(\C)c1cccc(C(F)(F)F)c1 [Ex. 11] | – | 23 | 1 | – | 20 | 0 | – | –
9 | CNC(=O)/C(=N/OC)c1cccc(C)c1CO/N=C(\C)c1cccc(C(F)F)c1 [Ex. 12] | 3 | 25 | 1 | 9 | 37 | 9 | – | –
10 | C=Cc1cccc(/C(=N\OC)C(=O)OC)c1CO/N=C(\C)c1cccc(C(F)(F)F)c1 [Ex. 13] | – | 28 | 0 | – | 25 | 0 | – | –
11 | CNC(=O)/C(=N/OC)c1cccc(C)c1CO/N=C(\C)c1cccc(/C(C)=N/OC)c1 [Ex. 15] | – | 4 | 0 | – | 24 | 1 | – | –
12 | CO/N=C(/C(=O)OC)c1cccc(C)c1CO/N=C(/c1ccc(Cl)cc1)C(F)F [Ex. 20] | – | 73 | 29 | – | 97 | 18 | – | –
13 | CO/N=C(/C(=O)OC)c1cccc(C)c1CO/N=C(/c1ccc(F)cc1)C(F)F [Ex. 21] | – | 100 | 77 | – | 97 | 88 | – | –
14 | CNC(=O)/C(=N/OC)c1cccc(C(F)F)c1CO/N=C(\C)c1cccc(C(F)(F)F)c1 [Ex. 23] | – | 12 | 1 | – | 20 | 1 | – | –
15 | CO/N=C(/C(=O)OC)c1cccc(C)c1CO/N=C(\C)c1ccc(CC2COC2)cc1 [compound 82] | – | 87 | 57 | – | – | – | – | –
16 | CNC(=O)/C(=N/OC)c1cccc(C)c1CO/N=C(\C)c1ccc(CC2COC2)cc1 [compound 83] | – | 97 | 73 | – | – | – | – | –
17 | CNC(=O)/C(=N/OC)c1cccc(C)c1CO/N=C(\C)c1ccc(OC(F)(F)F)cc1Cl [compound 271] | – | 5 | 1 | – | – | – | – | –
18 | CNC(=O)/C(=N/OC)c1cccc(C)c1CO/N=C(\C)c1cc(C(F)(F)F)ccc1C(F)(F)F [compound 272] | – | 60 | 8 | – | – | – | – | –
19 | CNC(=O)/C(=N/OC)c1cccc(C)c1CO/N=C(\C)c1cc(C(F)(F)F)ccc1C [compound 273] | – | 60 | 3 | – | – | – | – | –
20 | CCOc1ccccc1/C(C)=N/OCc1c(C)cccc1/C(=N\OC)C(=O)NC [compound 312] | – | 100 | 53 | – | – | – | – | –
21 | CNC(=O)/C(=N/OC)c1cccc(C)c1CO/N=C(\C)c1ccccc1OCOC [compound 314] | – | 100 | 40 | – | – | – | – | –
22 | CNC(=O)/C(=N/OC)c1cccc(C)c1CO/N=C(\C)c1ccccc1OC(C)C [compound 315] | – | 100 | 60 | – | – | – | – | –
23 | CNC(=O)/C(=N/OC)c1cccc(C)c1CO/N=C(\C)c1ccccc1Oc1ccccc1 [compound 321] | – | 100 | 40 | – | – | – | – | –
24 | CO/N=C(/C(=O)OC)c1cccc(C)c1CO/N=C(\C)c1cccc(OC(F)(F)F)c1 [drawing 936, reference compound] | – | – | – | – | – | – | 17 | –
25 | CNC(=O)/C(=N/OC)c1cccc(C)c1CO/N=C(\OC)c1cccc(C)c1 [drawing 974, reference compound] | – | – | – | 45 | – | – | – | –
26 | CO/N=C(/C(=O)OC)c1cccc(C)c1CO/N=C(\OC)c1cccc(C(F)(F)F)c1 [drawing 977, reference compound] | – | – | – | 23 | – | – | – | –
